“And” between values parts separate entries of the source, which are not always exact repeats. Equal entries are not always repeated.
Legend:
[1] = molecular target: EGFR L858R/C797S Ba/F3 cells (Homo sapiens, UniProt P00533, C797S/L858R, cells depend on it); test: Ba/F3 cell proliferation (Cell Titer Glo), EGFR L858R/C797S; type: cell-based, murine; conditions: 72 hours, Table 6
Source text: (§1) The EGFR mutant L858R Ba/F3 cells have been previously described (Zhou, W., et al. Nature 462, 2009, 1070-1074). The EGFR C797S and C775S mutations were introduced via site directed mutagenesis using the Quick Change Site-Directed Mutagenesis kit into a vector containing EGFR L858R mutation (Stratagene; La Jolla, CA) according to the manufacturer's instructions. All constructs were confirmed by DNA sequencing. The constructs were then shuttled into the retroviral vector JP1540 by either using the Cre-recombination system (Agilent Technologies, Santa Clara, CA) or the In-fusion HD Cloning kit (Takara Bio USA, Inc.; Mountain view, CA). Ba/F3 cells were then infected with retrovirus per standard protocols, as described previously (Zhou, et al, Nature 2009). Stable clones were obtained by selection in puromycin (2 μg/ml). All BaF/3 mutant cells were maintained in RPMI 1640 (Cellgro; Mediatech Inc., Herndon, CA) supplemented with 10% FBS, 100 units/mL penicillin, 100 units/mL streptomycin.
(§2) Growth and inhibition of growth was assessed by the Cell Titer Glo assay (Promega, Madison, WI) and was performed according to the manufacturer's instructions. The Cell Titer Glo assay is a luminescence-based method used to determine the number of viable cells based on quantitation of the ATP present, which is directly proportional to the amount of metabolically active cells present. Ba/F3 cells of different EGFR genotypes were exposed to compounds for 72 hours and the number of cells used per experiment was determined empirically as has been previously established (Zhou, et al., Nature 2009). All experimental points were set up in triplicates in 384-well plates. […] The curves were fitted using a non-linear regression model with a sigmoidal dose response.
(§3) Ba/F3 cells assay data are provided below in Table 5 and Table 6. For inhibitory activity against EGFR mutants, the following designations are used: <0.1 μM=A, 0.1 μM˜0.5 μM=B, 0.5 μM˜2.5 μM=C, ≥2.5 μM=D

[2] = molecular target: EGFR mutant L858R Ba/F3 cells (Homo sapiens, UniProt P00533, L858R, cells depend on it); test: Ba/F3 cell proliferation (Cell Titer Glo), EGFR L858R; type: cell-based, murine; conditions: 72 hours, Table 6, read-out: L858R BaF3
Source text: as §1, §2, §3

Sequence of EGFR mutant L858R Ba/F3 cells (P00533 whole entry L858R): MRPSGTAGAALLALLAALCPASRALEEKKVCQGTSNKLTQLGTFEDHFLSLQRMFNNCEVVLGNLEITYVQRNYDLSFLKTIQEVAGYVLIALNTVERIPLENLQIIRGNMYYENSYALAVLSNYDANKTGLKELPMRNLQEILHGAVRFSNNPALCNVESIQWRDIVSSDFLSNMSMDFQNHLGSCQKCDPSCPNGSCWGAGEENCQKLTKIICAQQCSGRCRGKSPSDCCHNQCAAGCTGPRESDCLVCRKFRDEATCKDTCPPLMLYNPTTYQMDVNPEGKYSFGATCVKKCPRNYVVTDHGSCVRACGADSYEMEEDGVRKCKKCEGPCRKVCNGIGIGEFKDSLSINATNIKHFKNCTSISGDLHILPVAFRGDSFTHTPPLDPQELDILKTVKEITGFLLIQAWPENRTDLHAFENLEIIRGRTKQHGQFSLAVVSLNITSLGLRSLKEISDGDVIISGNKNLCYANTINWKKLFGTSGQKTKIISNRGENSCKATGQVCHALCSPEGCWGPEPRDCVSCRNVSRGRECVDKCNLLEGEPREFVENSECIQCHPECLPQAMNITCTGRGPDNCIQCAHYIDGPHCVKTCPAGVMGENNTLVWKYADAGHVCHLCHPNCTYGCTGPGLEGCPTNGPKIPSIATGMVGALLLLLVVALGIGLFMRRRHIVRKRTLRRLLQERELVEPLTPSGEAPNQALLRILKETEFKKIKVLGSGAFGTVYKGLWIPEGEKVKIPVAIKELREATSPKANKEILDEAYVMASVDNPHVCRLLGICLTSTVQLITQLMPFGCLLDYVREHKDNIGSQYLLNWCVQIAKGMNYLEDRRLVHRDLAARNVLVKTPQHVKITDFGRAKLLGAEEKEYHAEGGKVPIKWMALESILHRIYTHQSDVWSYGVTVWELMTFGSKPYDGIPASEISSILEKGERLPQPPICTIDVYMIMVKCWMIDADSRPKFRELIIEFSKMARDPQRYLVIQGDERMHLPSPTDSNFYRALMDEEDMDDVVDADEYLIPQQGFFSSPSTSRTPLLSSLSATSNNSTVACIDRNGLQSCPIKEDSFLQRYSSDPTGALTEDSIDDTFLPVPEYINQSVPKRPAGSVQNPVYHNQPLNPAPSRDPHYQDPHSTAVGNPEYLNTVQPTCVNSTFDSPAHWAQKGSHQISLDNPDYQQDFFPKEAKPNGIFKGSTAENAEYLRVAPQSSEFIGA
Sequence of EGFR L858R/C797S Ba/F3 cells (P00533 whole entry C797S/L858R, the tested form may be a part): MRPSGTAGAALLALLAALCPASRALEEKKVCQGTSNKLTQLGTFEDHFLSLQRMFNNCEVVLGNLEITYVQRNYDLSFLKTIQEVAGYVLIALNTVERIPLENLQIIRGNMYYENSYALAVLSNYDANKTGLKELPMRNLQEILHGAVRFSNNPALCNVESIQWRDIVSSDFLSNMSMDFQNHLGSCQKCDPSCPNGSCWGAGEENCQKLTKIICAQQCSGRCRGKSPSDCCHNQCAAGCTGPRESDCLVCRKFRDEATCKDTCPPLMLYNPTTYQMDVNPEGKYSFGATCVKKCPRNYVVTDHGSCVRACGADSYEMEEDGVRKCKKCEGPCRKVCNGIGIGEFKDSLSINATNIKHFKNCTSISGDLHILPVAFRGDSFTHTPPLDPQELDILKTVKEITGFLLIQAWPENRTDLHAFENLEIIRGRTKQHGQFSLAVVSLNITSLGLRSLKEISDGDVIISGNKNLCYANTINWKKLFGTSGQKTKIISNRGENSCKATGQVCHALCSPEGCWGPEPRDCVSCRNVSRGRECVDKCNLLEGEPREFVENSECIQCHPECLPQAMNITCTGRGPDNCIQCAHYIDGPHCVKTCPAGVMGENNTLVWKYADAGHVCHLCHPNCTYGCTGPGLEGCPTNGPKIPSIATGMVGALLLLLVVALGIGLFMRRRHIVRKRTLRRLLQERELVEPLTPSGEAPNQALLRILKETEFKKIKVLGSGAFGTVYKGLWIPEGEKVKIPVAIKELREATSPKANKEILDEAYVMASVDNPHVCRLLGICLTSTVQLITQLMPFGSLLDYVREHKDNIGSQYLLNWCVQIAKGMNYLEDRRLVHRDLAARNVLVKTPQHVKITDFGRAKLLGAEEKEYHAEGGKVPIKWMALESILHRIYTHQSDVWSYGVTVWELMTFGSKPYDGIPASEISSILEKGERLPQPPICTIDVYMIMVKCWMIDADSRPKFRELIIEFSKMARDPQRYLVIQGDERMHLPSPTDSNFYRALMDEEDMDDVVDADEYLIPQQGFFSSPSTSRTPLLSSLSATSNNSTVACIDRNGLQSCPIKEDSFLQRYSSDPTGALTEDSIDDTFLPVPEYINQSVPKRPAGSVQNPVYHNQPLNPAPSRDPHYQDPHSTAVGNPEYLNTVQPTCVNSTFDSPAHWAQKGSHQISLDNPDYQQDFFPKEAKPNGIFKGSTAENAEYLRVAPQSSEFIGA

Structure (SMILES) | GI50 [1] | GI50 [2]
C=CC(=O)N1CCC(N2Cc3cnc(Nc4cnn(C)c4)nc3N(C)C2=O)c2ccccc21 (stereo not drawn) [Compound 061] | < 0.1 µM | < 0.1 µM
C=C(F)C(=O)N1CCC(N2Cc3cnc(Nc4ccc(N5CCN(C)CC5)cc4)nc3N(C)C2=O)c2ccccc21 (stereo not drawn) [Compound 064] | < 0.1 µM | < 0.1 µM
C=CC(=O)N1CCC(N2Cc3cnc(Nc4ccc(N5CCN(C)CC5)cc4)nc3N(C)C2=O)c2cccc(F)c21 (stereo not drawn) [Compound 099, 3-(8-fluoro-1-prop-2-enoyl-3,4-dihydro-2H-quinolin-4-yl)-1-methyl-7-[4-(4-methylpiperazin-1-yl)anilino]-4H-pyrimido[4,5-d]pyrimidin-2-one] | < 0.1 µM | < 0.1 µM
C=CC(=O)N1CCC(N2Cc3cnc(Nc4ccc(N5CCN(C)CC5)cc4OC(F)(F)F)nc3N(C)C2=O)c2ccccc21 (stereo not drawn) [Compound 087] | < 0.1 µM | < 0.1 µM
C=CC(=O)N1CCC(N2Cc3cnc(Nc4cccc(OC(F)F)c4)nc3N(C)C2=O)c2ccccc21 (stereo not drawn) [Compound 081] | < 0.1 µM | < 0.1 µM
C=CC(=O)Nc1cn(C)nc1CN1Cc2cnc(Nc3ccc(N4CCN(C)CC4)cc3)nc2N(C)C1=O [Compound 046] | ≥ 2.5 µM | ≥ 2.5 µM
C=CC(=O)N1CCC(N2Cc3cnc(Nc4cc(F)c(N5CCN(C)CC5)c(F)c4)nc3N(C)C2=O)c2ccccc21 (stereo not drawn) [Compound 072] | < 0.1 µM | < 0.1 µM
C=CC(=O)N1CCC(N2Cc3nnc(Nc4ccc(N5CCN(C)CC5)cc4)cc3N(C)C2=O)c2ccccc21 (stereo not drawn) [Compound 092, 5-methyl-S-[4-(4-methylpiperazin-1-yl)anilino]-7-(1-prop-2-enoyl-3,4-dihydro-2H-quinolin-4-yl)-8H-pyrimido[5,4-c]pyridazin-6-one] | ≥ 2.5 µM | ≥ 2.5 µM
C/C=C(\C#N)C(=O)N1CC[C@H](N2Cc3cnc(Nc4ccc(N5CCN(C)CC5)cc4)nc3N(C)C2=O)c2ccccc21 [Compound 101] | ≥ 2.5 µM | ≥ 2.5 µM
C=CC(=O)N1CCC(N2Cc3cnc(Nc4cnn(CCO)c4)nc3N(C)C2=O)c2ccccc21 (stereo not drawn) [Compound 063] | < 0.1 µM | < 0.1 µM
C=C(F)C(=O)N1CC[C@H](N2Cc3cnc(Nc4ccc5c(c4)CCN(C)C5)nc3N(C)C2=O)c2ccccc21 [Compound 098] | < 0.1 µM | < 0.1 µM
C=CC(=O)N1CCC(N2Cc3cnc(Nc4ccc(F)c(C#N)c4)nc3N(C)C2=O)c2ccccc21 (stereo not drawn) [Compound 082] | 0.1 to 0.5 µM and < 0.1 µM | < 0.1 µM
CN(C)C/C=C/C(=O)N1CCC(N2Cc3cnc(Nc4ccc(N5CCN(C)CC5)cc4)nc3N(C)C2=O)c2ccccc21 (stereo not drawn) [Compound 065] | 0.5 to 2.5 µM | 0.5 to 2.5 µM
[2H]C1(N2Cc3cnc(Nc4cnn(CCO)c4)nc3N(C3CC3)C2=O)CCN(C(=O)C(=C)F)c2ccccc21 (stereo not drawn) [Compound 113, 1-cyclopropyl-S-[4-deuterio-1-(2-fluoroprop-2-enoyl)-2,3-dihydroquinolin-4-yl]-7-[[1-(2-hydroxyethyl)pyrazol-4-yl]amino]-4H-pyrimido[4,5-d]pyrimidin-2-one] | 0.1 to 0.5 µM | < 0.1 µM
C=CC(=O)N1CCC(N2Cc3cnc(Nc4ccc(N5CCN(C)CC5)c(C(F)(F)F)c4)nc3N(C)C2=O)c2ccccc21 (stereo not drawn) [Compound 071] | < 0.1 µM | < 0.1 µM
C=CC(=O)N1CCC(N2Cc3cnc(Nc4ccc(N5CCN(C)CC5)cc4)nc3N(C)C2=O)CC12CCC2 (stereo not drawn) [Compound 089, 1-methyl-7-[4-(4-methylpiperazin-1-yl)anilino]-S-(5-prop-2-enoyl-5-azaspiro[3.5]nonan-8-yl)-4H-pyrimido[4,5-d]pyrimidin-2-one] | ≥ 2.5 µM | ≥ 2.5 µM
C=CC(=O)N1CCC(N2Cc3cnc(Nc4ccc(CN5CCN(C)CC5)cc4)nc3N(C)C2=O)c2ccccc21 (stereo not drawn) [Compound 078] | < 0.1 µM | < 0.1 µM

Structure (SMILES) | GI50 [1] | GI50 [2]
C=CC(=O)N1CCC(N2Cc3cnc(Nc4ccc(N5CCN(C)CC5)cc4)nc3N(C)C2=O)C2(CCC2)C1 (stereo not drawn) [Compound 094] | ≥ 2.5 µM | ≥ 2.5 µM
C=CC(=O)N1CCC(N2Cc3cnc(Nc4ccc(N5CCN(C)CC5)cc4)nc3N(C3CCOC3)C2=O)c2ccccc21 (stereo not drawn) [Compound 058] | < 0.1 µM | < 0.1 µM
CN1C(=O)N(C2CN(C#N)c3ccccc32)Cc2cnc(Nc3cnn(CCO)c3)nc21 (stereo not drawn) [Compound 106, 3-[7-[[1-(2-hydroxyethyl)pyrazol-4-yl]amino]-1-methyl-2-oxo-4H-pyrimido[4,5-d]pyrimidin-S-yl]indoline-1-carbonitrile] | ≥ 2.5 µM | ≥ 2.5 µM
C=C(F)C(=O)N1CC[C@H](N2Cc3cnc(Nc4cnn(CCO)c4)nc3N(C3CCOC3)C2=O)c2ccccc21 (stereo partly drawn) [Compound 102, 3-((S)-1-(2-fluoroacryloyl)-1,2,3,4-tetrahydroquinolin-4-yl)-7-((1-(2-hydroxyethyl)-1 H-pyrazol-4-yl)amino)-1-(tetrahydrofuran-S-yl)-3,4-dihydropyrimido[4,5-d]pyrimidin-2(1H)-one] | < 0.1 µM | < 0.1 µM
C=CC(=O)N1CCC(N2Cc3cnc(Nc4ccc(N5CCN(C)C6(CC6)C5)cc4)nc3N(C)C2=O)c2ccccc21 (stereo not drawn) [Compound 085, 1-methyl-7-[4-(4-methyl-4,7-diazaspiro[2.5]octan-7-yl)anilino]-S-(1-prop-2-enoyl-3,4-dihydro-2H-quinolin-4-yl)-4H-pyrimido[4,5-d]pyrimidin-2-one] | < 0.1 µM | < 0.1 µM
C=C(F)C(=O)N1CC(F)(F)C(N2Cc3cnc(Nc4cnn(CCO)c4)nc3N(C)C2=O)c2ccccc21 (stereo not drawn) [Compound 108, 3-[3,3-difluoro-1-(2-fluoroprop-2-enoyl)-2,4-dihydroquinolin-4-yl]-7-[[1-(2-hydroxyethyl)pyrazol-4-yl]amino]-1-methyl-4H-pyrimido[4,5-d]pyrimidin-2-one] | ≥ 2.5 µM | 0.5 to 2.5 µM
C=CC(=O)N1CCC(N2Cc3cnc(Nc4ccc5c(c4)CCN(C)C5)nc3N(C)C2=O)c2ccccc21 (stereo not drawn) [Compound 080] | < 0.1 µM | < 0.1 µM
C/C=C(\F)C(=O)N1CC[C@H](N2Cc3cnc(Nc4ccc(N5CCN(C)CC5)cc4)nc3N(C)C2=O)c2ccccc21 [Compound 097] | 0.5 to 2.5 µM | 0.1 to 0.5 µM
C=CC(=O)N1CCC(N2Cc3cnc(Nc4ccc(N5CCN(C)CC5)cc4)nc3N(c3cccc(NC(C)=O)c3)C2=O)c2ccccc21 (stereo not drawn) [Compound 051] | 0.5 to 2.5 µM | 0.1 to 0.5 µM
C=CC(=O)N1CC[C@@H](N2Cc3cnc(Nc4ccc(N5CCN(C)CC5)cc4)nc3N(C)C2=O)c2ccccc21 [Compound 049, 1-methyl-7-[4-(4-methylpiperazin-1-yl)anilino]-S-[(4R)-1-prop-2-enoyl-3,4-dihydro-2H-quinolin-4-yl]-4H-pyrimido[4,5-d]pyrimidin-2-one] | < 0.1 µM | < 0.1 µM
C=CC(=O)N1CC[C@H](N2Cc3cnc(Nc4ccc(N5CCN(C)CC5)cc4)nc3N(C)C2=O)c2ccccc21 [Compound 048, 1-methyl-7-[4-(4-methylpiperazin-1-yl)anilino]-S-[(4S)-1-prop-2-enoyl-3,4-dihydro-2H-quinolin-4-yl]-4H-pyrimido[4,5-d]pyrimidin-2-one] | < 0.1 µM | < 0.1 µM
[2H]C1(N2Cc3cnc(Nc4cnn(CCO)c4)nc3N(C)C2=O)CCN(C(=O)C=C)c2c(OC)cccc21 (stereo not drawn) [Compound 129, 3-(4-deuterio-8-methoxy-1-prop-2-enoyl-2,3-dihydroquinolin-4-yl)-7-[[1-(2-hydroxyethyl)pyrazol-4-yl]amino]-1-methyl-4H-pyrimido[4,5-d]pyrimidin-2-one] | ≥ 2.5 µM | 0.5 to 2.5 µM
C=CC(=O)N1CC[C@H](N2Cc3cnc(Nc4ccc5c(c4)CCN(C)C5)nc3N(CCO)C2=O)c2cccc(C)c21 [Compound 154, 1-(2-hydroxyethyl)-7-[(2-methyl-3,4-dihydro-1 H-isoquinolin-6-yl)amino]-S-[(4S)-8-methyl-1-prop-2-enoyl-3,4-dihydro-2H-quinolin-4-yl]-4H-pyrimido[4,5-d]pyrimidin-2-one] | < 0.1 µM | < 0.1 µM
C=CC(=O)N1CCC(N2Cc3cnc(Nc4ccc(C5=CCN(C)CC5)cc4)nc3N(C)C2=O)c2ccccc21 (stereo not drawn) [Compound 067] | < 0.1 µM | < 0.1 µM
C/C=C/C(=O)N1CC[C@H](N2Cc3cnc(Nc4ccc(N5CCN(C)CC5)cc4)nc3N(C)C2=O)c2ccccc21 [Compound 091] | 0.1 to 0.5 µM | 0.1 to 0.5 µM
C=CC(=O)N1c2ccccc2C(N2Cc3cnc(Nc4ccc(N5CCN(C)CC5)cc4)nc3N(C)C2=O)CC1(C)C (stereo not drawn) [Compound 107, 3-(1-acryloyl-2,2-dimethyl-1,2,3,4-tetrahydroquinolin-4-yl)-1-methyl-7-((4-(4-methylpiperazin-1-yl)phenyl)amino)-3,4-dihydropyrimido[4,5-d]pyrimidin-2(1H)-one] | ≥ 2.5 µM | ≥ 2.5 µM

Source: patent US20240352021A1 (DANA-FARBER CANCER INSTITUTE, INC., priority 2021, published 2024)
